We go through two compounds from US10196344B2, “Glaucocalyxin a derivative and preparation method and application thereof” (SUZHOU PHARMAVAN CANCER RESEARCH CENTER CO., LTD., priority 2015, dated 2019).

“Also recorded” adds a separate entry of the source. Where two headings read alike, the source gives them in different places.

Data set [1] has as its system MDA-MB-231 breast cancer cell line. As to the kind of experiment: Cell proliferation assay (MTT), MDA-MB-231. The format is cell-based. The note with it: 48 h; for Inhibitory rate of the cell proliferation versus concentration: 1-100 μmol/L; for IC50 for the inhibition of proliferation, compared among five cell lines: MTT. How it is done:
(§1) Cell Proliferation Assay (MTT): The experiment assaying the inhibition of dimethylamino glaucocalyxin A hydrochloride salt (hereinafter referred to as GH02) and glaucocalyxin A (i.e. GLA) on cell proliferation of cancer cell lines was performed as follows: cells of cancer cell lines were adjusted to a density of 10^4/100 μL and were seeded into 96-well plates at 100 μL per well and cultured overnight until the cells were completely adherent and grown up to 70-80% confluence. The mother liquid of GH02 and GLA (both of which concentrations were 100 mM) were diluted with complete medium, respectively, to final concentrations of 1, 3.125, 6.25, 12.5, 25, 50, 100 μmol/L, and then such diluted solutions were added into wells of 96-well plates, with each concentration being performed in 4 replicates, and the group without cells acting as blank control, and then incubated in the incubator at 372. After incubation for 48 h, MTT was added to each well to a final concentration of 0.5 mg/ml and further incubated in the incubator at 372 for 4 h. Subsequently, the supernatant was removed, 150 μL DMSO was added to each well and incubated with shaking for 10 min, and then the absorbance was measured at 490 nm on a microplate reader. Inhibitory rate of the cell proliferation=[(absorbance of the control group−absorbance of blank)−(absorbance of the medication group−absorbance of blank)]/(absorbance of the control group−absorbance of blank)% As shown in FIG. 4 to FIG. 6, MDA-MB-231 and MCF-7 are cell lines of breast cancer, SGC-7901 is a cell line of gastric cancer, U251 is a cell line of glioma, and A549 is a cell line of lung cancer.

The conditions of data set [2]: background statement; cited from earlier work.
The conditions of data set [3]: background statement; cited from earlier work. This is another data set of the same source.
The next data set concerns U251 cell line of glioma. As to the kind of experiment: Cell proliferation assay (MTT), U251. The note with it: 1-100 μmol/L, 48 h, FIG. 7-8. It counts as cell-based. The method, then:
as §1, with “The mother liquid of GH02 and GLA (both of which concentrations were 100 mM) were diluted with complete medium, respectively, to final concentrations of 1, 3.125, 6.25, 12.5, 25, 50, 100 μmol/L, and then such diluted solutions were added into wells of 96-well plates, with each concentration being performed in 4 replicates, and the group without cells acting as blank control, and then incubated in the incubator at 372. After incubation for 48 h, MTT was added to each well to a final concentration of 0.5 mg/ml and further incubated in the incubator at 372 for 4 h.” left out

The subject of data set [4] is MCF-7 cell line of breast cancer. The data set can be described thus: Cell proliferation assay (MTT), MCF-7. The format is cell-based. The note with it: 1-100 μmol/L, 48 h, FIG. 7-8. The method, then:
as §1, with “The mother liquid of GH02 and GLA (both of which concentrations were 100 mM) were diluted with complete medium, respectively, to final concentrations of 1, 3.125, 6.25, 12.5, 25, 50, 100 μmol/L, and then such diluted solutions were added into wells of 96-well plates, with each concentration being performed in 4 replicates, and the group without cells acting as blank control, and then incubated in the incubator at 372. After incubation for 48 h, MTT was added to each well to a final concentration of 0.5 mg/ml and further incubated in the incubator at 372 for 4 h.” left out

The test system of data set [5] is SGC-7901 cell line of gastric cancer. The data set can be described thus: Cell proliferation assay (MTT), SGC-7901. The format is cell-based. Particulars: 1-100 μmol/L, 48 h, FIG. 7-8. How it is done:
as §1, with “The mother liquid of GH02 and GLA (both of which concentrations were 100 mM) were diluted with complete medium, respectively, to final concentrations of 1, 3.125, 6.25, 12.5, 25, 50, 100 μmol/L, and then such diluted solutions were added into wells of 96-well plates, with each concentration being performed in 4 replicates, and the group without cells acting as blank control, and then incubated in the incubator at 372. After incubation for 48 h, MTT was added to each well to a final concentration of 0.5 mg/ml and further incubated in the incubator at 372 for 4 h.” left out

In data set [6] the test system is A549 cell line of lung cancer. As to the kind of experiment: Cell proliferation assay (MTT), A549. It counts as cell-based. The note with it: 1-100 μmol/L, 48 h, FIG. 7-8. How it is done:
as §1, with “The mother liquid of GH02 and GLA (both of which concentrations were 100 mM) were diluted with complete medium, respectively, to final concentrations of 1, 3.125, 6.25, 12.5, 25, 50, 100 μmol/L, and then such diluted solutions were added into wells of 96-well plates, with each concentration being performed in 4 replicates, and the group without cells acting as blank control, and then incubated in the incubator at 372. After incubation for 48 h, MTT was added to each well to a final concentration of 0.5 mg/ml and further incubated in the incubator at 372 for 4 h.” left out

Data set [7] is described as follows: Oral bioavailability / in vivo pharmacokinetics. The note with it: when used as a drug; found by the inventors by means of experiments.
The nature of the next data set: Water solubility. It counts as physicochemical. The note with it: found by the inventors by means of experiments.

Regarding `C=C1C(=O)C23C(O)C1CCC2[C@]1(C)CCC(=O)C(C)(C)[C@H]1C[C@H]3O` (stereo partly drawn) [GLA, Kaur-16-ene-3,15-dione,(7α, 14R)—], the “Inhibitory rate of the cell proliferation versus concentration” value in data set [1] (FIG. 7-8) is recorded as “increased with the increase of the concentration of GLA; also recorded: highest inhibitory rate”; in the data set on U251 cell line of glioma, “increased with the increase of the concentration of GLA”; in data set [4] it was “increased with the increase of the concentration of GLA”; in data set [5], “increased with the increase of the concentration of GLA”; in data set [6], “increased with the increase of the concentration of GLA”. Also, the “IC50 for the inhibition of proliferation, compared among five cell lines” value in data set [1] (FIG. 4-6) is given as “lowest IC50 values”. Moreover, the water solubility entry in data set [2] was “poor water solubility”. The bioavailability in vivo entry in data set [3] is “low bioavailability”. For the same compound, in data set [3], the half-life in vivo entry is “short half-life”.
For the compound `CN(C)CC1C(=O)C23C(O)C1CCC2[C@]1(C)CCC(=O)C(C)(C)[C@H]1C[C@H]3O.Cl` (some centres unmarked) [GH02, dimethylamino glaucocalyxin A hydrochloride], the “Inhibitory rate of the cell proliferation versus concentration” value in [1] (FIG. 7-8, hydrochloride) is on record as “increased with the increase of the concentration of GH02; also recorded: highest inhibitory rate”; with U251 cell line of glioma, “increased with the increase of the concentration of GH02”; in data set [4], “increased with the increase of the concentration of GH02”; in [5], “increased with the increase of the concentration of GH02”; in data set [6], “increased with the increase of the concentration of GH02”. Moreover, the “IC50 for the inhibition of proliferation, compared among five cell lines” value in data set [1] (FIG. 4-6, hydrochloride) is “lowest IC50 values”. Also, in data set [7], the oral bioavailability result is recorded as “high oral bioavailability”. For the same compound, the water solubility entry in the data set “Water solubility” was “good water solubility”.
